One experiment has as its system sH1N1/01 H274Y. It counts as cell-based, influenza A virus. To be noted: read-out: IC50 sH1N/01 H274Y.
The next experiment relates to Auckland pH1N1 E119K. It counts as cell-based, influenza A virus. To be noted: pH 1.
The test system of the next experiment is Fukui H3N2 E119V. It counts as cell-based, influenza A virus.
The subject of the next experiment is B/Perth D197E. It counts as cell-based, influenza B virus. Particulars: read-out: sensitivity to inhibitors, B/Perth D197E.
The next experiment concerns Sol Isl sH1N1 E119A. It counts as cell-based, influenza A virus.
The subject of experiment [1] is B/Florida E119D (B/Florida/4/2006 mutant 1 E117D). It counts as cell-based, influenza B virus.
The test system of another experiment is sH1N1/08 H274Y. It counts as cell-based, influenza A virus.

This passage reports IC50 results from patent US9834534B2, “Neuraminidase inhibitor compounds, compositions and methods for the use thereof in anti-viral treatments” (THE UNIVERSITY OF BRITISH COLUMBIA, priority 2009, dated 2017).

Molecules are shown by their SMILES. pIC50: −log10 of the molar value.

In the case of `CC(=O)NC1C(NC(=N)N)C(F)C(F)(C(=O)O)OC1[C@H](O)[C@H](O)CO` (stereo partly drawn) [4-G3Feq diF SA, 5-Acetamido-2,4,5-trideoxy-2α, 3β-difluoro-4-guanidino-α-D-erythro-L-gluco-nonulopyranosonate], the pIC50 with sH1N1/01 H274Y was 7.36; in the experiment on Auckland pH1N1 E119K, […]; with Fukui H3N2 E119V, 5.62; in the experiment on B/Perth D197E, 8.10.
Turning to `CC(=O)N[C@@H]1C(NC(=N)N)C(F)[C@](F)(C(=O)O)OC1[C@H](O)[C@H](O)CO` (stereo partly drawn) [Compound 12, (2R,3R)-4-Guanyl-2,4-dideoxy-2,3-difluorosialic acid], the pIC50 in the experiment on Sol Isl sH1N1 E119A was […]; in the experiment on sH1N1/01 H274Y, 6.66; in the experiment with Auckland pH1N1 E119K, […]; in the experiment with Fukui H3N2 E119V, 3.00; with B/Perth D197E it was 6.79.
For `CCOC(=O)C1=C[C@@H](OC(CC)CC)[C@H](NC(C)=O)[C@@H](N)C1` [Oseltamivir], the pIC50 with Sol Isl sH1N1 E119A was 6.38; in experiment [1], 5.92; with sH1N1/01 H274Y it was 5.61; with sH1N1/08 H274Y it was 5.70; in the experiment with Auckland pH1N1 E119K, 6.83; with Fukui H3N2 E119V, 3.59.
For the compound `CC(=O)N[C@H]1[C@H]([C@H](O)[C@H](O)CO)OC(C(=O)O)=C[C@@H]1N=C(N)N` [Zanamivir, reference compound], the pIC50 is less than 5.00 in the experiment on Sol Isl sH1N1 E119A; less than 5.00 in experiment [1]; 8.70 in the experiment on sH1N1/08 H274Y; less than 4.00 in the experiment with Auckland pH1N1 E119K; 5.47 with Fukui H3N2 E119V; 6.59 with B/Perth D197E.
